Like-named read-outs stand apart in the source and are kept apart here.
Key:
[1] = system: cucumber anthracnose (Colletotrichum lagenarium, CA); test: Fungicidal activity test against cucumber anthracnose in vivo; details: 400 ppm spray on potted cucumber seedlings; visual assessment after 5 days
[2] = system: beet armyworm (Laphygma exigua Hubner); test: Test against beet armyworm (leaf disc spray); type: in vivo; details: Spodoptera exigua, foliar, 96 h, after 96 h; for mortality at 10 ppm / mortality at 1 ppm: third instar; for mortality at 0.3 ppm / mortality at 0.6 ppm: parallel test
Method: (§1) According to the solubility of test compounds, the compounds are dissolved in acetone or dimethyl sulfoxide, and then diluted with 0.1% aqueous solution of Tween 80 to form 50 ml test liquid, the content of acetone or dimethyl sulfoxide in the total solution is not more than 10%.
The cabbage leaves were perforated to get 1 cm diameter leaf discs by the hole puncher. Certain concentrations of test compounds were sprayed on both sides of the discs at the spray volume of 0.5 ml by Airbrush. Eight test insects (third instar) were introduced on each treatment after drying. Each treatment repeated 3 times. The treated discs were placed in a chamber of 24° C., 60%-70% relative humidity, no light. After 96 h, the number of surviving insects was investigated and the mortality was calculated.

[3] = system: tomato late blight (Phytophthora infestans); test: microbe, parasite or virus in culture; type: cell-based; details: 240 h, read-out: control efficiency against tomato late blight (rate of fungi inhibition)
[4] = system: striped stem borer (Chilo suppressalis (Walker)); test: Test against striped stem borer (artificial feed film); type: in vivo
Method: as §1
The 6 well culture plates were chosen, 5 mL artificial feed was added into each well. After the feed solidified, 0.2 mL solution of certain concentrations of test compounds was added into per well with a continuous sampler and made the uniform film in the feed surface. Eight regular health insects (second instar) were introduced on each treatment after drying. Each treatment was repeated for 4 times. The pure water was set as CK. The treated discs were placed in a chamber of 24° C., 60%-70% relative humidity and day light. After 72 h, the number of surviving insects was investigated and the mortality was calculated.

[5] = system: army worm (Mythimna separata); test: Test against army worm (corn leaf dip); type: in vivo; details: foliar, third instar, after 72 h
Method: as §1
The middle part of fresh corn leaves were chosen and cut into 3 cm sects. The sects were dipped into the solution of certain concentration of test compounds for 10 seconds, dried and placed in 9 cm diameter Petri dish. Eight regular health insects (third instar) were introduced on each treatment. Each treatment was repeated for 4 times. The pure water was set as CK. The treated discs were placed in a chamber of 24° C., 60%-70% relative humidity and day light. After 72 h, the number of surviving insects was investigated and the mortality rates were calculated.

[6] = system: Diamondback moth (Plutella xylostella); test: Test against diamondback moth (cabbage leaf disc dip); type: in vivo; details: foliar, third instar, after 72 h
Method: as §1
The leaves of cabbage grown in greenhouse were chosen, removed the surface waxy layer and perforated to get 2 cm diameter leaf discs by the hole puncher. The discs were dipped in a solution of certain concentrations of test compounds for 10 seconds, dried and placed in 9 cm diameter Petri dish. Eight regular health insects (third instar) were introduced on each treatment. Each treatment was repeated for 4 times. The pure water was set as CK. The treated discs were placed in a chamber of 24° C., 60%-70% relative humidity and day light. After 72 h, the number of surviving insects was investigated and the mortality was calculated.

[7] = system: rice leaf folder (Cnaphalocrocis medinalis Guenee); test: Field test against rice leaf folder; type: in vivo; details: 168 h, spray 450 L/ha, after 7 d
Method: A certain concentrations of test compounds were sprayed on leaves at the time of hatching peak of rice leaf folder. Spay volume was 450 L/ha. The section area of rice was 32 m^2. Each treatment was repeated for 3 times. After 7d, the number of surviving insects was investigated and the mortality was calculated.

[8] = system: armyworm (Mythimna seperata); details: 50 ppm; cited from earlier work
[9] = system: fall armyworm (Spodoptera frugiperda); details: 10 ppm; cited from earlier work
[10] = 10 ppm, read-out: mortality against beet armyworm
[11] = 0.3 ppm, Table 3, read-out: Mortality (%) against beet armyworm
[12] = parallel test, Table 5, after 72 h

In the case of `CNC(=O)c1cc(Cl)cc(C)c1NC(=O)c1cc(C)nn1-c1ncc(Cl)cc1Cl` [Compound 1], the “protective controlling effect against cucumber anthracnose” value [1] was “more than 90%”, the mortality at 10 ppm ([2]; read-out: mortality against beet armyworm, 10 ppm) was ≥ 90% and the inhibition at 25 ppm [3] was > 90%.

For `CNC(=O)c1cc(Cl)cc(C)c1NC(=O)c1cc(C(F)(F)F)nn1-c1ncc(Cl)cc1Cl` [Compound 3], the mortality at 1 ppm [2] was ≥ 90% and the mortality at 10 ppm [2, 10] was ≥ 90%.

In the case of `Cc1cc(Cl)cc(C(N)=O)c1NC(=O)c1cc(Br)nn1-c1ncc(Cl)cc1Cl` [Compound 15], the mortality at 10 ppm [2, 10] was ≥ 90%.

With `CNC(=O)c1cc(Cl)cc(C)c1NC(=O)c1cc(Br)nn1-c1ncc(Cl)cc1Cl` [Compound 18] the mortality at 10 ppm ([4]; second instar, after 72 h) was ≥ 90%, the mortality at 0.4 ppm [5] was ≥ 90% and the mortality at 0.3 ppm [2, 11] was 50%. The mortality at 0.3 ppm ([2]; 0.3 ppm, Table 4, read-out: Mortality (%) against beet armyworm) was 62%, the mortality at 0.6 ppm ([2]; 0.6 ppm, Table 4, read-out: Mortality (%) against beet armyworm) was 100% and the mortality at 1 ppm [2] was ≥ 90%. The mortality at 10 ppm [2, 10] was ≥ 90%.

In the case of `CNC(=O)c1cc(Cl)cc(Cl)c1NC(=O)c1cc(Br)nn1-c1ncc(Cl)cc1Cl` [Compound 19], the mortality at 0.8 ppm [6] was > 90%, the mortality at 5 ppm [4, 12] was 90% and the mortality at 10 ppm [4, 12] was 100%. The mortality at 10 ppm ([4]; second instar, after 72 h) was ≥ 90%, the mortality at 0.4 ppm [5] was ≥ 90% and the mortality at 0.3 ppm [2, 11] was 87.5%. The mortality at 1 ppm [2] was ≥ 90%, the mortality at 10 ppm [2, 10] was ≥ 90% and the mortality at 30 g/ha [7] was 56%. The mortality at 60 g/ha [7] was 63%.

With `CCNC(=O)c1cc(Cl)cc(C)c1NC(=O)c1cc(Br)nn1-c1ncc(Cl)cc1Cl` [Compound 22] the mortality at 1 ppm [2] was ≥ 90% and the mortality at 10 ppm [2, 10] was ≥ 90%.

In the case of `CNC(=O)c1cc(Cl)cc(C)c1NC(=O)c1cc(Br)nn1-c1ncc(Br)cc1Cl` [KC1, reference compound], the mortality at 0.3 ppm ([2]; read-out: Mortality (%) against beet armyworm, 0.3 ppm, Table 3) was 0%, the mortality at 0.3 ppm ([2]; read-out: Mortality (%) against beet armyworm, 0.3 ppm, Table 4) was 12.5% and the mortality at 0.6 ppm ([2]; read-out: Mortality (%) against beet armyworm, 0.6 ppm, Table 4) was 75.5%. The “insecticidal activity against armyworm” value [8] was “highly effective”.

In the case of `CNC(=O)c1cc(Cl)cc(C)c1NC(=O)c1cc(Br)nn1-c1ncccc1Cl` [KC2, chlorantraniliprole, reference compound], the “insecticidal activity against fall armyworm” value [9] is given as “highly effective”, the mortality at 5 ppm [4, 12] is given as 60% and the mortality at 10 ppm [4, 12] is given as 90%. It also gave a mortality at 30 g/ha [7] of 34% and a mortality at 60 g/ha [7] of 52%.

Source: patent publication US8492409B2, “1-substituted pyridyl-pyrazolyl amide compounds and uses thereof” (Sinochem Corporation, priority 2008, dated 2013)
